# Columns and labels:
# Test in all cases: relative viability (nuclei count vs DMSO), 5 days (fraction); higher = more cells survive
# Ruxolitinib + Phenformin = compound: N#CC[C@H](C1CCCC1)n1cc(-c2ncnc3[nH]ccc23)cn1 [Ruxolitinib] + N=C(N)NC(=N)NCCc1ccccc1 [Phenformin] (partner 250 µM)
# Outline: (§1)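 Lung cancer cell lines in 1536-well plates got either a single drug or a fixed anchor-drug dose together with five library-drug doses (not always all listed) in √10 steps, by pin tool, on the day after seeding. Nuclei were counted after 5 days, and relative viability is the treated-to-vehicle ratio of nuclei counts. Values are medians of duplicate plates.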
# VE-821 + Bortezomib = compound: CS(=O)(=O)c1ccc(-c2cnc(N)c(C(=O)Nc3ccccc3)n2)cc1 [VE-821] + CC(C)C[C@H](NC(=O)[C@H](Cc1ccccc1)NC(=O)c1cnccn1)B(O)O [Bortezomib] (partner 0.002 µM)
# Outline: as §1
# Ruxolitinib + Navitoclax = compound: N#CC[C@H](C1CCCC1)n1cc(-c2ncnc3[nH]ccc23)cn1 [Ruxolitinib] + CC1(C)CCC(c2ccc(Cl)cc2)=C(CN2CCN(c3ccc(C(=O)NS(=O)(=O)c4ccc(N[C@H](CCN5CCOCC5)CSc5ccccc5)c(S(=O)(=O)C(F)(F)F)c4)cc3)CC2)C1 [Navitoclax] (partner 0.5 µM)
# Outline: as §1
# VE-821 + Crizotinib = compound: CS(=O)(=O)c1ccc(-c2cnc(N)c(C(=O)Nc3ccccc3)n2)cc1 [VE-821] + C[C@@H](Oc1cc(-c2cnn(C3CCNCC3)c2)cnc1N)c1c(Cl)ccc(F)c1Cl [Crizotinib] (partner 1 µM)
# Outline: as §1
cell line,measurement,setting,value
UMC-11,relative viability,Ruxolitinib + Phenformin; first compound 0.08 µM,0.344
same,relative viability,Ruxolitinib + Phenformin; first compound 0.253 µM,0.326
same,relative viability,Ruxolitinib + Phenformin; first compound 0.8 µM,0.356
same,relative viability,Ruxolitinib + Phenformin; first compound 2.53 µM,0.279
same,relative viability,Ruxolitinib + Phenformin; first compound 8 µM,0.257
same,relative viability,VE-821 + Bortezomib; first compound 0.08 µM,0.873
same,relative viability,VE-821 + Bortezomib; first compound 0.253 µM,0.707
same,relative viability,VE-821 + Bortezomib; first compound 0.8 µM,0.794
same,relative viability,VE-821 + Bortezomib; first compound 2.53 µM,0.789
same,relative viability,VE-821 + Bortezomib; first compound 8 µM,0.641
same,relative viability,Ruxolitinib + Navitoclax; first compound 0.08 µM,0.3
same,relative viability,Ruxolitinib + Navitoclax; first compound 0.253 µM,0.302
same,relative viability,Ruxolitinib + Navitoclax; first compound 0.8 µM,0.388
same,relative viability,Ruxolitinib + Navitoclax; first compound 2.53 µM,0.352
same,relative viability,Ruxolitinib + Navitoclax; first compound 8 µM,0.288
same,relative viability,VE-821 + Crizotinib; first compound 0.08 µM,0.85
same,relative viability,VE-821 + Crizotinib; first compound 0.253 µM,0.681
same,relative viability,VE-821 + Crizotinib; first compound 0.8 µM,0.534
same,relative viability,VE-821 + Crizotinib; first compound 2.53 µM,0.626
same,relative viability,VE-821 + Crizotinib; first compound 8 µM,0.238
